# Key:
# p110α/p85 = p110α/p85 (Homo sapiens, UniProt P42336); assay: Inhibition of isolated enzyme (lipid kinase assay, [γ33P]ATP, TLC); assay type: biochemical; conditions: recombinant enzyme, 100 μM ATP, 1 hr room temperature, average of two experiments
# Experimental: (§1) Compounds were evaluated for their ability to inhibit Class I PI 3-kinase enzymes p110δ/p85, p110α/p85, and p110β/p85. Reaction mixtures comprising 0.1 μg of a recombinant enzyme, 10 μg of L-α-phosphatidylinositol, and 2× Lipid Kinase Buffer (40 mM Tris-HCl, pH 7.4, 200 mM NaCl, 1 mM EDTA), which contains either DMSO only as a control or the test compound in DMSO (the final DMSO concentration is 1%), were activated by the addition of an ATP mix (5 mM MgCl2, 100 μM ATP, and 0.1 μL [γ^33P]ATP). Reactions were incubated at room temperature for 1 hr, and then stopped by the addition of 1M HCl. The lipids were then extracted using a two step procedure. Firstly, 200 μL of chloroform/methanol (1:1) was added, the biphasic reactions mixed and centrifuged briefly, and the inorganic phase was removed and discarded. Following this, 80 μL of methanol:HCl (1:1) was added and the same procedure followed. The organic phase (70 μL) was then transferred to a clean 1.6 mL tube and the reactions were dried using a Speedvac, with no heating, for […]. The reactions were spotted onto TLC plates (Merck Ltd) and developed for 1 hr in propanol-1:2 M acetic acid (13:7). The TLC plates were then dried at room temperature and quantified using a phosphorimager (StormImager, Amersham). Nine compound concentrations were used for each test compound to determine its IC50 value. Each experiment was performed twice and the average IC50 value is used herein.
# p110β/p85 = p110β/p85 (Homo sapiens, UniProt P42338); assay: as above; assay type: biochemical; conditions: recombinant enzyme, 100 μM ATP, 1 hr room temperature, average of two experiments
# Experimental: as §1
# p110δ/p85 = p110δ/p85 (Homo sapiens, UniProt O00329); assay: as above; assay type: biochemical; conditions: recombinant enzyme, 100 μM ATP, 1 hr room temperature, average of two experiments
# Experimental: as §1
# NZOV9 = assay: Cellular growth inhibition (3H-thymidine incorporation); assay type: cell-based; conditions: Homo sapiens, five days incubation, 3H-thymidine over the last 6 hrs, read-out: Cell IC50* NZOV9
# Experimental: (§2) The compounds were evaluated against two early passage human cell lines NZB5 and NZOV9 (Marshall et al., Oncol. Res. 2004, 14, 297). The cells were grown in ITS medium (α-modified minimal essential medium supplemented insulin, transferrin, selenite, and 5% fetal bovine serum) and grown on 96-well tissue culture plates under an atmosphere of 5% O2, 5% CO2, and 90% N2. Individual wells contained 500-1,000 cells (depending on the growth rate) in a volume of 150 μL. Compounds were added at 10-fold concentration steps to a maximum of 20 μM and plates were incubated for five days, with ^3H-thymidine being added over the last 6 hrs. Cells were harvested and incorporated radioactivity measured. Duplicate samples were analyzed for each compound dose with multiple control samples. Data were fitted by a least-squares method to an exponential of the form y=y0+ae^−bx, where y is the radioactivity (corrected for background and normalized to 100% of the control), x is the […], and y0, a, and b are variables, and the IC50 value defined as the compound concentration reducing ^3H-thymidine levels by 50%.
# NZB5 = assay: as above; assay type: cell-based; conditions: Homo sapiens, five days incubation, 3H-thymidine over the last 6 hrs, read-out: Cell IC50* NZB5
# Experimental: as §2
# Chain of p110δ/p85 (O00329 whole entry, species assumed): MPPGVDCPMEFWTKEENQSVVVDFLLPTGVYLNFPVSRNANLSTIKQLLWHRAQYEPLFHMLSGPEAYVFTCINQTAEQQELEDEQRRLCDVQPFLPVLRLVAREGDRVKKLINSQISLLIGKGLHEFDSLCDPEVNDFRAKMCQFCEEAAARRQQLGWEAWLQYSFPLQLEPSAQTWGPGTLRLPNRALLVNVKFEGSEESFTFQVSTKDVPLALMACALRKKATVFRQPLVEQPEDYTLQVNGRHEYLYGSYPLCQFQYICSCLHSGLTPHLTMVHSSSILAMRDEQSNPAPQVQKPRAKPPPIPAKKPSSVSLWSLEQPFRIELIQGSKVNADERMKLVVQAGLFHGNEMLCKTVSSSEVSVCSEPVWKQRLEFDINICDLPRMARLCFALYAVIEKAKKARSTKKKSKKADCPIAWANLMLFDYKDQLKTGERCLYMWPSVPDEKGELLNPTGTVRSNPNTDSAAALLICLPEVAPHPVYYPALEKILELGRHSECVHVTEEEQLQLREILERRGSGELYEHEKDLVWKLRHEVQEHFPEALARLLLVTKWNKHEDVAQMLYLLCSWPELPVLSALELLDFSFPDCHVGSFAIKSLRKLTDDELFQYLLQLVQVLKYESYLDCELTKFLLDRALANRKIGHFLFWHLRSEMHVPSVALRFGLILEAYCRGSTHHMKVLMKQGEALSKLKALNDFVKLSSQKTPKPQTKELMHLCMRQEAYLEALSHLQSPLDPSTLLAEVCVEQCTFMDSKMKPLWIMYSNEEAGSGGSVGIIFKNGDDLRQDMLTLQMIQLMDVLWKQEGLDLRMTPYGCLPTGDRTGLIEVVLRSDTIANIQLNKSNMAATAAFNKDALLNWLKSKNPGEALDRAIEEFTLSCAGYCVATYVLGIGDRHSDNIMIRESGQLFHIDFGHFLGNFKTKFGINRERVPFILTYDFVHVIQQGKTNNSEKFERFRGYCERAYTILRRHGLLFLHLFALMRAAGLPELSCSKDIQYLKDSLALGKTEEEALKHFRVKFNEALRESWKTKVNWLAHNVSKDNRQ
# Chain of p110δ/p85 (P27986 whole entry partner, species assumed): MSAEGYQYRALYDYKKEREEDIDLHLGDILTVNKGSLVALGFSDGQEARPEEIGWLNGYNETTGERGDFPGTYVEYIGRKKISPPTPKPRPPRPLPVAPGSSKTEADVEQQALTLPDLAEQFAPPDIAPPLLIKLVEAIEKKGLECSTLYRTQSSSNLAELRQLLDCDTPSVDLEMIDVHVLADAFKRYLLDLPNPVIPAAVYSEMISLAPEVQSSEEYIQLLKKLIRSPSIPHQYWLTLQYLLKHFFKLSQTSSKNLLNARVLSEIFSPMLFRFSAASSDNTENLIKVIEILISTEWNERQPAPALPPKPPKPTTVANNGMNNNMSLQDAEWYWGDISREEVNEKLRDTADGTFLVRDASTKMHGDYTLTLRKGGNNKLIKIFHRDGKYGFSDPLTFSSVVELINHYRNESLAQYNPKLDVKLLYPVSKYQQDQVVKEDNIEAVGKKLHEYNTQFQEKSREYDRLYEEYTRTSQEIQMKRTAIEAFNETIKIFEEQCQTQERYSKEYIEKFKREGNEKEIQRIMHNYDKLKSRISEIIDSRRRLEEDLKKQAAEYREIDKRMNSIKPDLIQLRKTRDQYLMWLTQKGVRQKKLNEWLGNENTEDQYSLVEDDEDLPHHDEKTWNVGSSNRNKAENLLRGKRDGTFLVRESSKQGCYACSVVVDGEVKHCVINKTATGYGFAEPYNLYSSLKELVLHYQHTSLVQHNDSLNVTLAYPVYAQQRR
# Chain of p110β/p85 (P42338 whole entry, species assumed): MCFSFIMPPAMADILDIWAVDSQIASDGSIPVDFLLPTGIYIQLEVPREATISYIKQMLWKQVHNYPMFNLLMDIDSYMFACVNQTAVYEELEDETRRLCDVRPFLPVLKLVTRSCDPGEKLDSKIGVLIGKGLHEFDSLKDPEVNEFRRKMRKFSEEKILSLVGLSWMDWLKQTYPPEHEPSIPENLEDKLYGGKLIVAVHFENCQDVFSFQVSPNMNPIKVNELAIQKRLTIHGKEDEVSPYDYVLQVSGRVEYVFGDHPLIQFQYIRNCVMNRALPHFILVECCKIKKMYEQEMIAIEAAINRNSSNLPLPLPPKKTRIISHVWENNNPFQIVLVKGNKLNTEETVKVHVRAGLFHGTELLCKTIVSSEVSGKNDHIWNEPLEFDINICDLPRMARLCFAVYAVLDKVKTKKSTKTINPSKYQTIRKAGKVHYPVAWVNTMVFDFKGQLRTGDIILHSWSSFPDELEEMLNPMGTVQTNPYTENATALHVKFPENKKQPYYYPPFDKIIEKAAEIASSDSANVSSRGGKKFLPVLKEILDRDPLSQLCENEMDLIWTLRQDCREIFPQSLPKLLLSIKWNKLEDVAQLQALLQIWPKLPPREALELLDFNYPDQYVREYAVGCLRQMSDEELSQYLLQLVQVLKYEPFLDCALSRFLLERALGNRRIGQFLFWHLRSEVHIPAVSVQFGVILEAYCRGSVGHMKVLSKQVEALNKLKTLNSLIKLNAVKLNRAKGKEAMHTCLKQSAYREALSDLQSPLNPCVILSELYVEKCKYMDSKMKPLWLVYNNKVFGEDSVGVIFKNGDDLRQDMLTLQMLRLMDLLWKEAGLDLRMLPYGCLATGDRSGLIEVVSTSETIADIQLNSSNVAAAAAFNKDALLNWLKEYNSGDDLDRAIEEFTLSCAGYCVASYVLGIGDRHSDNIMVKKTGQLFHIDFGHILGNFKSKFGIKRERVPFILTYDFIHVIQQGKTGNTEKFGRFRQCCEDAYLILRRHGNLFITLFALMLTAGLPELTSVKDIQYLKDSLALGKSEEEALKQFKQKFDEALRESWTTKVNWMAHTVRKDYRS
# Chain of p110β/p85 (P27986 whole entry partner, species assumed): as the sequence (P27986 whole entry partner, species assumed) above
# Chain of p110α/p85 (P42336 whole entry): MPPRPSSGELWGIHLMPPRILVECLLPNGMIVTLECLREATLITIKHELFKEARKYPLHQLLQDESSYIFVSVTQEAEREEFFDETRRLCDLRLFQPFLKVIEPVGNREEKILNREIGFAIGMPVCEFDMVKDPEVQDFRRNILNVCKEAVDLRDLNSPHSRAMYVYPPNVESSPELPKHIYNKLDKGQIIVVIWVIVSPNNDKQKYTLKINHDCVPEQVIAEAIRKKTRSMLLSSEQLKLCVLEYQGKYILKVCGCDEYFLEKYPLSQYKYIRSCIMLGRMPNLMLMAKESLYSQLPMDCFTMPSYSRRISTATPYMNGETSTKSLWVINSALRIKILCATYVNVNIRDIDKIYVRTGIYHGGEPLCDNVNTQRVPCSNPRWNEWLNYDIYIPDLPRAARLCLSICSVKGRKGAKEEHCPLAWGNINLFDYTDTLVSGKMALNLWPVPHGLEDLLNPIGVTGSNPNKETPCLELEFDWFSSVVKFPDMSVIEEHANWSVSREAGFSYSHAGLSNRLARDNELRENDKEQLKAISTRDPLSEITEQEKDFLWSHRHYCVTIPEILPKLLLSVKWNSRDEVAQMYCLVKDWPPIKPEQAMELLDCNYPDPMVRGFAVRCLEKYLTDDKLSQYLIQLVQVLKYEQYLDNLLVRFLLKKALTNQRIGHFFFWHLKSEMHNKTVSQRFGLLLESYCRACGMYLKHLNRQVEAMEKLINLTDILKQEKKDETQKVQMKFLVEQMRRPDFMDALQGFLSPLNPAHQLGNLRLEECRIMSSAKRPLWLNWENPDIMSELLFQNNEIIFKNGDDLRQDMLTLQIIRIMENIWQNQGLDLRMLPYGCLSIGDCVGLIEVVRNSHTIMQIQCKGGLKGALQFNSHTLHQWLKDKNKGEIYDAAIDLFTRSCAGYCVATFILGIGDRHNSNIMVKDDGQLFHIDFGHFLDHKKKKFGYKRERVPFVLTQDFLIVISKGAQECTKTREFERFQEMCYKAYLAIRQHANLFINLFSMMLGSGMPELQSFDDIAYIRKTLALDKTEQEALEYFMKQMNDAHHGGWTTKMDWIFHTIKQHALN
# Chain of p110α/p85 (P27986 whole entry partner): as the sequence (P27986 whole entry partner, species assumed) above
Structure (SMILES),IC50 (p110α/p85) [nM],IC50 (p110β/p85) [nM],IC50 (p110δ/p85) [nM],melting point [°C],IC50 (NZOV9) [nM],IC50 (NZB5) [nM]
"FC(F)c1nc2ccccc2n1-c1nc(NCc2ccccn2)nc(N2CCOCC2)n1 [Example 13, 4-[2-(difluoromethyl)-1H-benzimidazol-1-yl]-6-(4-morpholinyl)-N-(2-pyridinylmethyl)-1,3,5-triazin-2-amine]",< 100,< 100,< 100,192 to 193,100 to 1000,100 to 1000
"COc1cccc2c1nc(C(F)F)n2-c1nc(Nc2ccc(Cl)nc2)nc(N2CCOCC2)n1 [Example 30, N-(6-chloro-3-pyridinyl)-4-[2-(difluoromethyl)-4-methoxy-1H-benzimidazol-1-yl]-6-(4-morpholinyl)-1,3,5-triazin-2-amine]",< 100,100 to 1000,< 100,260 to 262,< 100,< 100
"FC(F)c1nc2ccccc2n1-c1nc(-c2cccnc2)nc(N2CCOCC2)n1 [Example 47, 2-(difluoromethyl)-1-[4-(4-morpholinyl)-6-(3-pyridinyl)-1,3,5-triazin-2-yl]-1H-benzimidazole]",< 100,100 to 1000,< 100,199 to 201,100 to 1000,100 to 1000
"CS(=O)(=O)c1nc2ccccc2n1-c1nc(Nc2cccnc2)nc(N2CCOCC2)n1 [Example 5, 4-[2-(methylsulfonyl)-1H-benzimidazol-1-yl]-6-(4-morpholinyl)-N-(3-pyridinyl)-1,3,5-triazin-2-amine]",100 to 1000,100 to 1000,< 100,208 to 211,100 to 1000,100 to 1000
"COc1cccc2c1nc(C(F)F)n2-c1nc(Nc2cccnn2)nc(N2CCOCC2)n1 [Example 33, 4-[2-(difluoromethyl)-4-methoxy-1H-benzimidazol-1-yl]-6-(4-morpholinyl)-N-(3-pyridazinyl)-1,3,5-triazin-2-amine]",< 100,100 to 1000,< 100,261 to 263,< 100,100 to 1000
"COc1cccc2c1nc(C(F)F)n2-c1nc(Nc2ccncn2)nc(N2CCOCC2)n1 [Example 36, 4-[2-(difluoromethyl)-4-methoxy-1H-benzimidazol-1-yl]-6-(4-morpholinyl)-N-(4-pyrimidinyl)-1,3,5-triazin-2-amine]",< 100,100 to 1000,< 100,234 to 236,< 100,< 100
"COc1cccc2c1nc(C(F)F)n2-c1nc(Nc2ccc(N)nc2)nc(N2CCOCC2)n1 [Example 37, N^5-[4-[2-(difluoromethyl)-4-methoxy-1H-benzimidazol-1-yl]-6-(4-morpholinyl)-1,3,5-triazin-2-yl]-2,5-pyridinediamine]",< 100,100 to 1000,< 100,267 to 270,< 100,< 100
"O=S(=O)(c1ccccc1)c1nc(N2CCOCC2)nc(-n2c(C(F)F)nc3ccccc32)n1 [Example 12, 2-(difluoromethyl)-1-[4-(4-morpholinyl)-6-(phenylsulfonyl)-1,3,5-triazin-2-yl]-1H-benzimidazole]",1000 to 10000,1000 to 10000,1000 to 10000,237 to 239,> 10000,> 10000
"COc1cccc2c1nc(C(F)F)n2-c1nc(Nc2ccc(N(C)C)nc2)nc(N2CCOCC2)n1 [Example 39, N^5-[4-[2-(difluoromethyl)-4-methoxy-1H-benzimidazol-1-yl]-6-(4-morpholinyl)-1,3,5-triazin-2-yl]-N^2,N^2-dimethyl-2,5-pyridinediamine]",< 100,100 to 1000,< 100,136 to 137,< 100,< 100
"FC(F)c1nc2ccccc2n1-c1nc(Nc2ccncc2)nc(N2CCOCC2)n1 [Example 17, 4-[2-(difluoromethyl)-1H-benzimidazol-1-yl]-6-(4-morpholinyl)-N-(4-pyridinyl)-1,3,5-triazin-2-amine]",< 100,100 to 1000,< 100,222 to 224,< 100,< 100
"COc1ccncc1Nc1nc(N2CCOCC2)nc(-n2c(C(F)F)nc3ccccc32)n1 [Example 26, 4-[2-(difluoromethyl)-1H-benzimidazol-1-yl]-N-(4-methoxy-3-pyridinyl)-6-(4-morpholinyl)-1,3,5-triazin-2-amine]",< 100,100 to 1000,< 100,161 to 163,100 to 1000,100 to 1000
"COc1cccc2c1nc(C(F)F)n2-c1nc(Nc2cncnc2)nc(N2CCOCC2)n1 [Example 31, 4-[2-(difluoromethyl)-4-methoxy-1H-benzimidazol-1-yl]-6-(4-morpholinyl)-N-(5-pyrimidinyl)-1,3,5-triazin-2-amine]",< 100,100 to 1000,< 100,293 to 295,< 100,< 100
"Cn1cc(Nc2nc(N3CCOCC3)nc(-n3c(C(F)F)nc4ccccc43)n2)cn1 [Example 25, 4-[2-(difluoromethyl)-1H-benzimidazol-1-yl]-N-(1-methyl-1H-pyrazol-4-yl)-6-(4-morpholinyl)-1,3,5-triazin-2-amine]",< 100,100 to 1000,< 100,225 to 226,100 to 1000,100 to 1000
"FC(F)c1nc2ccccc2n1-c1nc(Nc2cccnc2)nc(N2CCOCC2)n1 [Example 1, 4-[2-(difluoromethyl)-1H-benzimidazol-1-yl]-6-(4-morpholinyl)-N-(3-pyridinyl)-1,3,5-triazin-2-amine]",< 100,< 100,< 100,228 to 230,100 to 1000,100 to 1000
"CNc1ccc(Nc2nc(N3CCOCC3)nc(-n3c(C(F)F)nc4c(OC)cccc43)n2)cn1 [Example 38, N^5-[4-[2-(difluoromethyl)-4-methoxy-1H-benzimidazol-1-yl]-6-(4-morpholinyl)-1,3,5-triazin-2-yl]-N^2-methyl-2,5-pyridinediamine]",< 100,100 to 1000,< 100,218 to 221,< 100,< 100
"FC(F)c1nc2ccccc2n1-c1nc(Nc2ccccc2)nc(N2CCOCC2)n1 [Example 6, 4-[2-(difluoromethyl)-1H-benzimidazol-1-yl]-6-(4-morpholinyl)-N-phenyl-1,3,5-triazin-2-amine]",100 to 1000,100 to 1000,< 100,171 to 174,100 to 1000,100 to 1000
"CSc1nc2ccccc2n1-c1nc(Nc2cccnc2)nc(N2CCOCC2)n1 [Example 4, 4-[2-(methylsulfanyl)-1H-benzimidazol-1-yl]-6-(4-morpholinyl)-N-(3-pyridinyl)-1,3,5-triazin-2-amine]",1000 to 10000,1000 to 10000,100 to 1000,240 to 241,100 to 1000,< 100
"COc1cc(Nc2nc(N3CCOCC3)nc(-n3c(C(F)F)nc4c(OC)cccc43)n2)ncn1 [Example 32, 4-(2-(difluoromethyl)-4-methoxy-1H-benzimidazol-1-yl)-N-(6-methoxypyrimidin-4-yl)-6-morpholino-1,3,5-triazin-2-amine]",< 100,100 to 1000,< 100,256 to 259,< 100,> 10000
"FC(F)c1nc2ccccc2n1-c1nc(Oc2ccccc2)nc(N2CCOCC2)n1 [Example 10, 2-(difluoromethyl)-1-[4-(4-morpholinyl)-6-phenoxy-1,3,5-triazin-2-yl]-1H-benzimidazole]",> 10000,> 10000,1000 to 10000,228 to 231,1000 to 10000,> 10000

# From patent US8486939B2, “Pyrimidinyl and 1,3,5-triazinyl benzimidazoles and their use in cancer therapy” (Pathway Therapeutics Inc., priority 2009, dated 2013)
